The values that follow come from US10611732B2, “HIV replication inhibiting pyrimidines” (Janssen Pharmaceutica NV, priority 2001, dated 2020).

The test system of one series is HIV. The experiment in a line: microbe, parasite or virus in culture. On the procedure:
(§1) A rapid, sensitive and automated assay procedure was used for the in vitro evaluation of anti-HIV agents. An […] T4-cell line, MT-4, which was previously shown (Koyanagi et al., Int. J Cancer, 36, 445-451, 1985) to be highly susceptible to and permissive for HIV infection, served as the target cell line. Inhibition of the HIV-induced cytopathic effect was used as the end point. The viability of both HIV- and mock-infected cells was assessed spectrophotometrically via the in situ reduction of 3-(4,5-dimethylthiazol-2-yl)-2,5-diphenyltetrazolium bromide (MTT). The 50% cytotoxic concentration (CC50 in M) was defined as the concentration of compound that reduced the absorbance of the mock-infected control sample by 50%. The percent protection achieved by the compound in HIV-infected cells was calculated by the following formula:
(§2) [formula] whereby (ODT)HIV is the optical density measured with a given concentration of the test compound in HIV-infected cells; (ODC)HIV is the optical density measured for the control untreated HIV-infected cells; (ODC)MOCK is the optical density measured for the control untreated mock-infected cells; all optical density values were determined at 540 nm. The dose achieving 50% protection according to the above formula was defined as the 50% inhibitory concentration (IC50 in M). The ratio of CC50 to IC50 was defined as the selectivity index (SI).
(§3) Table 6 lists the pIC50 (−log IC50), pCC50 (−log CC50) and pSI (pCC50-pIC50) values for the compounds of formula (I).

Series [1] can be described thus: cytotoxicity in mock-infected MT-4 cells (MTT). Particulars: human, mock-infected MT-4 cells. The procedure: as §1, §2, §3

In the case of `Cc1cc(/C=C(/F)C#N)cc(C)c1Oc1ccnc(Nc2ccc(C#N)cc2)n1` [Compound 110], the melting point – broadly, the temperature of the solid-liquid transition – worked out at 254 °C. In the series on HIV (Human immunodeficiency virus 1, MT4, read-out: pIC50 (−log IC50), HIV-infected MT-4 cells (converted), dose achieving 50% protection, MTT, OD 540 nm), the IC50 – broadly, the midpoint of a concentration-inhibition curve – is 0.00251 µM. Also, the “pSI (pCC50-pIC50)” value in the series with HIV (selectivity index, ratio of CC50 to IC50, as log difference) is reported as −4.3. In series [1], the CC50 (as a rule, the concentration at which the toxic effect on the cells reaches its halfway point) is 50.1 µM.
